Experimental data taken from publication PMC2743695 (BMC Structural Biology, 2009).

Target: AlrBax (Dal1, alanine racemase from Bacillus anthracis Ames) (Bacillus anthracis, UniProt A0A6L7HC45)
Settings: covalent (internal aldimine with Lys41); pH 6.5; chloride ion and acetate in active site

Chain of AlrBax (Dal1, alanine racemase from Bacillus anthracis Ames) (A0A6L7HC45 1-389 limits assumed): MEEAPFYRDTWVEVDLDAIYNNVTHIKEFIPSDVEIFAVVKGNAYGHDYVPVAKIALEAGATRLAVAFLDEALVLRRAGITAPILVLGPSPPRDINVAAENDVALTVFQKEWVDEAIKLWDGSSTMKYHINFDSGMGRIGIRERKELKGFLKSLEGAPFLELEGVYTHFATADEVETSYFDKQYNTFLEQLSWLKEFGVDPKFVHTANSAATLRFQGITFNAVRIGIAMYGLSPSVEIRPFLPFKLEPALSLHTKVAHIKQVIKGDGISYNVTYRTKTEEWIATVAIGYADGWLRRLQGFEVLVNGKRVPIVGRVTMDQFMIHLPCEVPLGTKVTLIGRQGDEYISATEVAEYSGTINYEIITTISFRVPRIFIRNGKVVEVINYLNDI

For Cc1ncc(COP(=O)(O)O)c(C=O)c1O [PLP], the “X-ray crystal structure, 1.95 Å” value was “In the AlrBax structure, Lys41 is seen covalently linked to the PLP cofactor”.
